The record followed here is patent US9676829B2, “Antibacterial polypeptides and use thereof” (Oslo Universitetssykehus HF, priority 2009, dated 2017).

What all share (format): cell-based, Escherichia coli
In one assay the test system is E. coli cells. In words: Membrane depolarization, DiBAC4(3) uptake by flow cytometry after IPTG induction. To be noted: 5 and 20 minutes after 1 mM IPTG. The protocol: Cells were grown to OD600≅0.4 in LB and then induced with IPTG to a final concentration of 1 mM. At 0, 5 and 20 minutes culture samples were diluted 1:10 in filtered AB minimal medium (Clark and MaalØe, 1967) +10 μg ml-1 DiBAC4(3) (Sigma-Aldrich). After 20 minutes incubation in the dark at room temperature, cells were analysed in a Flowcytometry LSRII (Becton Dickinson) equipped with an argon ion laser and a krypton laser (both Spectra Physics). DiBAC4(3) was detected in channel 580 using 488 nm laser. Parameters were collected as logarithmic signals. The two populations were easily separated in each staining experiment. The data obtained was analyzed by winMDI software.
To examine whether DinQ affects membrane polarization, the inventors tested the ability of E. coli cells with dinQ containing plasmids to take up the dye DiBAC4(3) [bis-(1,3-dibarbituric acid)-trimethine oxanol]. The dye enters cells upon membrane depolarization leading to increased fluorescence. Cells were taken 5 and 20 minutes after induction of DinQ expression with IPTG, incubated with DiBAC4(3) for 20 min and analyzed by flow cytometry (FIG. 9).

Another assay relates to E. coli ER2566. Put plainly: UV radiation survival spot assay of dinQ variants. To be noted: UV irradiation of 24 J/m2, compared with intact dinQ (pBK444). An excerpt: The spots in FIG. 22 represent E. coli ER2566 dilutions in the range of 100-10-5 (left to right). UV irradiation of 24 J/m2 was used to induce dinQ toxicity (right picture), and was compared to the unirradiated control assay (left picture). Control cells carry the vector plasmid (pKK232-8), and cells carrying the plasmid encoding intact dinQ (pBK444), were used as reference.
The spots FIG. 23 represent E. coli ER2566 dilutions in the range of 10^0-10^−5 (left to right). UV irradiation of 24 J/m2 was used to induce dinQ toxicity (right picture), and was compared to the unirradiated control assay (left picture). Control cells carry the vector plasmid (pKK232-8), and cells carrying the plasmid encoding intact dinQ (pBK444), were used as reference (see FIG. 23).

Assay [1] has as its system E. coli. Put plainly: Microscopy of E. coli overexpressing dinQ ORF5 upon IPTG induction. The following applies: 4 h after IPTG 1 mM. The protocol: E. coli capable of overexpressing dinQ ORF5 were plated (LB agar 2%, kan, tet, amp) and incubated (O/N, 37° C.). A single colony was picked and grown (37° C., 16 h, 200 rpm) in liquid media (LB, kan, tet, amp). The culture was then adjusted to OD600=0.03 in fresh media (LB, kan, tet, amp) and allowed to grow (37° C., 16 h, 200 rpm) back to OD600=0.5 before induction with IPTG (1 mM). After incubation (4 h, 37° C., 200 rpm) an aliquot (200 μl) of the E. coli suspension was removed and fixed in MeOH (1 ml, −20° C.). After centrifugation (2000 rpm, 4° C., 5 min) the cells were aspirated and re-suspend in NaCl (0.9% in H2O). The samples were then spotted onto slides and allowed to dry (42° C.). The slides were then washed 3×H2O and allowed to air dry (RT) before microscopy (see FIG. 20).

In the next assay the test system is wild type E. coli. Put plainly: IPTG sensitivity spot assay, DinQ ORFs over-expressed from pET28b(+). The protocol:
A. IPTG sensitivity in strains plated on IPTG. An aliquot or serially diluted (10-1-10-5 cells ml-1) log-phase cultures of wild type E. coli with empty expression vector pET28b(+) or vector constructs with alternative DinQ ORFs were spotted onto LB plates containing no IPTG (left panel) or 0.6 mM IPTG (right panel). The […] indicates a toxic effect with DinQ ORF 2-5 when the translation is forced by IPTG induction.
Expression plasmids pET28b-ORF1, pET28b-ORF2, pET28b-ORF3, pET28b-ORF4 and pET28b-ORF5 contains the DinQ ORF1, ORF2, ORF3, ORF4 and ORFS open reading frames inserted in the NcoI-BamHI restriction sites of the pET28b(+) vector (Novagen).
The mechanism underlying the UV sensitive phenotype of DinQ in a multicopy situation or under upregulation in an agrB mutant is unknown. The dinQ gene contain two putative open reading frames in which one of the reading frames encode three putative start codons (ii-iv, see FIG. 1C). […] To examine if any of the open reading frames mediate the UV sensitivity each reading frame were cloned into the expression vector pET28b(+) and expressed under control of IPTG (FIG. 4A). […] Next, DinQ ORF […] expression was titrated with increasing concentrations of IPTG (FIG. 4C) showing that ORF IV is highly toxic to the cells at very low doses of IPTG induction. […]

The subject of a further assay is agrB mutant BK4043. In words: Intracellular ATP concentration, luciferase-based assay. To be noted: agrB mutant with up-regulated DinQ peptide vs wild type AB1157. The protocol:
Aliquots of cells were harvested before and 20 minutes after induction with IPTG to a final concentration of 1 mM and washed once in 50 mM Tris-Acetate pH 7.75. ATP was extracted from washed cells by 1% (TCA) trichloraceticacid in 50 mM Tris-Acetate pH 7.75 for 10 minutes. Tris-acetate buffer (1 ml) was added 1:10 to obtain optimal pH of 7.75 before mixing with rL/L reagent (ENLITEN ATP assay, Promega) at room temperature. The amount of ATP extracted (RLU value) was measured with 20/20 Luminometer (Turner Designs) and related to the OD600 for each sample.
The effect of DinQ peptide on the intracellular ATP concentration was measured using a quantitative luciferase-based assay (see materials and methods for details). […] Extracts from uninduced and SOS-induced agrB cells and wild-type cells, AB1157, were analysed 20 minutes after exposure by UV irradiation (sublethal doses).

The subject of assay [2] is E. coli. Put plainly: Small colony variant count after IPTG induction of dinQ ORF5. The following applies: IPTG 1 mM. The protocol:
E. coli capable of overexpressing dinQ ORFS were incubated (O/N, 37° C., 200 rpm) before subculturing to OD600=0.01 (LB, kan, tet, amp). After incubation (37° C., 200 rpm) to OD600=0.5 expression of the toxin was either induced with IPTG (1 mM) or not. At time points after the addition the bacteria were serially diluted (×10) and plated (LB, 2% agar). After incubation (16 h, 37° C.) the plates were counted. Colony size was estimated and those 10× smaller than a typical colony were counted as a small colony variant SCV (see FIG. 21).

With “ORF3: amino acid sequence of the dinQ III polypeptide (ORF-III), 42 aa (MSKRMHSHSIAWRKRVIDKAIIVLGALIALLELIRFLLQLLN; listed as Escherichia coli)”, the “effect on membrane integrity / depolarization (DiBAC4(3) uptake)” value with E. coli cells is “rapid and dramatic effects on the membrane integrity”. Regarding “MIDKAIIVLGAIVALLELIRFLLQLLN [L12I and I13V]”, the “toxicity of the dinQ peptide upon UV induction” value in the assay on E. coli ER2566 is on record as “maintain the toxicity”. Consider “MIDKAIIVLKALIALLELIRFLLQLLN (G10K variant of dinQ ORF V peptide)”, for which the “toxicity of the dinQ peptide upon UV induction” value in the assay on E. coli ER2566 was “maintain the toxicity”. In the case of “MIDKAIIVLGALIALLELIRFLLQLLN (listed as Escherichia coli) [ORF5, DinQ ORF-V peptide with N-terminal Met, form translated from GUG start codon, 27 aa]”, in the assay on E. coli [1], the “effect on membrane integrity (ghost cells) by microscopy” value is on record as “damages membrane integrity”. The “toxic/growth inhibitory effect on IPTG plates” value in the assay with wild type E. coli (pET28b(+) constructs, IPTG induction, absence of UV) is on record as “strong toxicity”. In addition, the “effect on membrane integrity / depolarization (DiBAC4(3) uptake)” value in the assay on E. coli cells is “rapid and dramatic effects on the membrane integrity”; in the assay with E. coli cells (listed as DinQ ORF5), “most pronounced”. Further, the “effect on intracellular ATP” value in the assay on agrB mutant BK4043 is “impairs the energy supply in the form of ATP”. Also, in the assay on E. coli [2], the “colony phenotype after induction” value is recorded as “appearance of small colony variants (SCV)”. For “MIDKAIVVLGALIALLELIRFLLQLLN (I7V variant of dinQ ORF V peptide)”, the “toxicity of the dinQ peptide upon UV induction” value with E. coli ER2566 is recorded as “maintain the toxicity”. Same read-out and setting: to “MIDKAIIVLGALIALLELIRFLIQLLN (L23I variant of dinQ ORF V peptide)” belongs “maintain the toxicity”. Consider “ORF4: amino acid sequence of the dinQ IV polypeptide (ORF-IV), 38 aa (MHSHSIAWRKRVIDKAIIVLGALIALLELIRFLLQLLN; listed as Escherichia coli)”, for which the “toxicity on titration with increasing concentrations of IPTG” value in the assay with wild type E. coli (very low doses of IPTG induction) was “highly toxic”. For the same substance, the “effect on membrane integrity / depolarization (DiBAC4(3) uptake)” value with E. coli cells is “rapid and dramatic effects on the membrane integrity”. Turning to “DinQ ORF2: amino acid sequence of the dinQ II polypeptide (ORF-II), 49 aa (MRRDRQWMSKRMHSHSIAWRKRVIDKAIIVLGALIALLELIRFLLQLLN; listed as Escherichia coli)”, the “effect on membrane integrity / depolarization (DiBAC4(3) uptake)” value with E. coli cells is “rapid and dramatic effects on the membrane integrity”.
